In ChEMBL document CHEMBL5537205, “Discovery of D25, a Potent and Selective MNK Inhibitor for Sepsis-Associated Acute Spleen Injury” (J Med Chem, 2024):
Activity calls are given as the source filed them. The rule behind the calls is not given here.

What was measured:
[1] = test system: Mus musculus; assay: Antiinflammatory activity in LPS-induced BALB/c sepsis mouse model assessed as decrease in cell gap in spleen at 10 to 20 mg/kg, po preadministered with compound for 14 days followed by LPS stimulation and measured after 6 hrs by H&E staining based analysis; format: functional, organism-based; details: dose 10-20 mg/kg, time 342.0 hrs
[2] = test system: Mus musculus; assay: Antiinflammatory activity in LPS-induced BALB/c sepsis mouse model assessed as decrease in COX-2 level in spleen at 10 to 20 mg/kg, po preadministered with compound for 14 days followed by LPS stimulation and measured after 6 hrs by Western blot analysis; format: functional, organism-based; details: dose 10-20 mg/kg, time 342.0 hrs
[3] = test system: MV4-11; assay: Antiproliferative activity against human MV4-11 cells assessed as inhibition of cell proliferation at 20 uM incubated for 48 hrs by CCK8 assay relative to control; format: functional
[4] = Clearance in Sprague-Dawley rat at 5 mg/kg, iv measured after 48 hrs; format: ADME, organism-based; details: in vivo
[5] = test system: Mus musculus; assay: Antiinflammatory activity in LPS-induced BALB/c sepsis mouse model assessed as decrease in serum BUN level at 10 to 20 mg/kg, po preadministered with compound for 14 days followed by LPS stimulation and measured after 6 hrs; format: functional, organism-based; details: dose 10-20 mg/kg, time 342.0 hrs
[6] = test system: Mus musculus; assay: Antiinflammatory activity in LPS-induced BALB/c sepsis mouse model assessed as reversal of LPS-induced kidney renal index at 20 mg/kg, po preadministered with compound for 14 days followed by LPS stimulation and measured after 6 hrs; format: functional, organism-based; details: time 342.0 hrs
[7] = test system: RAW264.7; assay: Antiinflammatory activity in LPS-induced mouse RAW264.7 cells assessed as reduction in ROS level at 5 to 20 uM pretreated with compound followed by LPS stimulation and measured after 1 hrs by flow cytometric analysis; format: functional, cell-based; details: dose 5-20 µM
[8] = test system: RAW264.7; assay: Antiinflammatory activity against mouse RAW264.7 cells assessed as inhibition of LPS-NO production at 20 uM by Griess reagent based assay relative to control; format: functional
[9] = AUC (0 to t) in Sprague-Dawley rat at 5 mg/kg, iv measured after 48 hrs; format: ADME, organism-based; details: in vivo
[10] = test system: Mus musculus; assay: Antiinflammatory activity in LPS-induced BALB/c sepsis mouse model assessed as decrease in serum IL-6 level at 20 mg/kg, po preadministered with compound for 14 days followed by LPS stimulation and measured after 6 hrs by ELISA; format: functional, organism-based; details: time 342.0 hrs
[11] = test system: Mus musculus; assay: Antiinflammatory activity in LPS-induced BALB/c sepsis mouse model assessed as increase in GSH level in serum at 20 mg/kg, po preadministered with compound for 14 days followed by LPS stimulation and measured after 6 hrs; format: functional, organism-based; details: time 342.0 hrs
[12] = Half-life in Sprague-Dawley rat at 20 mg/kg, po measured after 48 hrs; format: ADME, organism-based; details: in vivo
[13] = test system: Mus musculus; assay: Antiinflammatory activity in LPS-induced BALB/c sepsis mouse model assessed as decrease in iNOS level in spleen at 10 to 20 mg/kg, po preadministered with compound for 14 days followed by LPS stimulation and measured after 6 hrs by Western blot analysis; format: functional, organism-based; details: dose 10-20 mg/kg, time 342.0 hrs

## c1cc(-c2cc(C3CCNCC3)n[nH]2)c2cc[nH]c2n1
[1]
  Activity: Active
[2]
  Activity: Active
[3]
  inhibition at 20 µM: 98.5%
[4]
  clearance: 52 mL/min/kg
[5]
  Activity: Active
[6]
  Activity: Active
[7]
  Activity: Active
[8]
  inhibition at 20 µM: 70%
[9]
  AUCt: 1618 ng·h/mL
[10]
  Activity: Active
[11]
  Activity: Active
[12]
  half-life: 3.34 h
[13]
  Activity: Active
